Literature values in patent publication US20020142346A1, “Binding compounds and methods for identifying binding compounds” (priority 2000, published 2002).

How the values were obtained:
[1] = target: T1, SH2 (src) (Homo sapiens, UniProt P12931); conditions: binding domain SH2 (src); preferred peptide
T1 construct: SH2 (src)

[2] = target: Src; conditions: binding domain Src; preferred peptide

Substance: PYEEIY
- Kd [1]: 0.1 µM

Substance: EPQpYEEIPIYLK
- Kd [2]: 0.08 µM
